Key:
MCF7 cells = experiment: Cell growth assay, MCF7 breast cancer cells; format: cell-based; conditions: in the presence or absence of E2, 4 days
Protocol: (§1) MCF7, T47D, MDA-MB-453, MDA-MB-231 breast cancer cells were grown in corning T75 cell culture flask in RPMI1640 medium supplemented with 5% FBS, 50 μg/ml Kanamycin in a 37° C., 5% CO2 incubator.
(§2) 20,000 cells in 1 ml of medium (phenol red free RPMI1640, 5% charcoal-dialysis FBS, 50 μg/ml Kanamyacin) were seeded per well of a 24-well plate and incubated in a 37° C. incubator with 5% CO2 overnight. Different concentrations of herbal extract were added to each well in order to have final concentrations from 50 μg/ml to 500 μg/ml. For prostate cancer cells, DHT (25 nM) was used to stimulate androgen receptor activity. For glucocorticoid receptor overexpressed LNCaP cells, dexamethasone (50 nM) was used to stimulate glucocorticoid receptor activity. For all breast cancer cells, E2 (10 nM) was used to stimulate ER activity. Control medium without any steroid hormone was used as a control setting. After 4 days of incubation, cells were fixed and stained for 2 h with 0.5% methylene blue in 50% ethanol, followed by washing with tap water to remove unbound dye. Plates were air dried and then cells were dissolved in 1% sarkosyl (sodium lauroyl sarcosinate) by shaking at room temperature for 3 h. Cell growth was quantified based on the amount of methylene blue adsorbed by the cells as measured by a spectrophotometer (Molecular Devices) at 595 nm. […]

[1] = system: SGK1 mRNA (target gene of GR); experiment: qRT-PCR of DEX induced SGK1 mRNA; format: cell-based; conditions: 22RV1 or PC3 cells
From the text: FIGS. 5D-5E are graphs showing the effect of Y1830, RG (or the fraction comprising RG), and RGA (or the fraction comprising RGA) on the DEX induced glucocorticoid receptor mediated transcriptional response of 22RV1 and PC3 PSA-luciferase reporter cells. FIGS. 5F-5G are graphs showing the effect of Y1830 on SGK1 (target gene of GR) mRNA expression with or without DEX using qRT-PCR.
RNA was extracted from herb treated cells using the Roche High Pure RNA isolation kit. cDNA was then generated from RNA samples using a Bio-rad iScript Advanced cDNA synthesis kit for RT-qPCR. qPCR was performed using human NRF2, H01, NQO1 and β-actin primers (Table 1) and iTaq™ Universal SYBR® Green Supermix in a CFX PCR machine (Bio-rad). Relative mRNA expression was calculated based on the change of the threshold cycle relative to the internal control, β-actin, using a standard curve generated by purified PCR products.

[2] = system: histone 2AX serine 139 phosphorylation; experiment: Western blot, MCF7 cells, H2AX-ser139; format: cell-based; conditions: presence or absence of E2, 24 h
Protocol: (§3) Western blot analysis was used to determine the protein expression using protein specific antibodies.
(§4) Total cell lysis was conducted using 2×SDS sample buffer (62.5 mM Tris-HCl, 2% SDS, 10% glycerol, 50 mM DTT, and 0.05% bromophenol blue). The samples were sonicated for 10 s to shear DNA. Cell nuclei were isolated using Tris buffer saline with 0.4% NP40. Cell extracts were then electrophoresed through 10% SDS-polyacrylamide gels and transferred to 0.2 μm nitrocellulose membranes (Bio-Rad Laboratories, Hercules, Calif.) with a Miniprotein II transferring apparatus (Bio-Rad). The membranes were blocked and probed in TBS-T buffer (1×TBS buffer, 0.2% Tween 20) containing 5% non-fat milk. Monoclonal rabbit anti-AR (1:5000), was used to detect androgen receptor (Abcam #133273), Glucocorticoid Receptor (D8H2) XP® Rabbit mAb #3660, ERa Antibody (F-10): sc-8002, BRD4 (E2A7X) Rabbit mAb #13440, Brd2 (D89B4) Rabbit mAb #5848, PARP (46D11) Rabbit mAb #9532, Acetyl-Histone H3 (Lys27) (D5E4) XP® Rabbit mAb #8173 and a monoclonal actin antibody diluted 1:2500 (Sigma, St. Louis, Mo.) was used to detect β-actin as the internal control to confirm equal protein loading. […] Enhanced chemiluminescence reagents (Perkin-Elmer Life Science Products, Boston, Mass.) were used to visualize the immunoreactive bands and the densities of protein bands were scanned analyzed using ImageJ software from the NIH.

[3] = system: Poly[ADP-ribose] polymerase-1 (PARP-1); experiment: Western blot, MCF7 cells, PARP-1; format: cell-based; conditions: 24 h
Protocol: as §3, §4

tumor protein p53 = experiment: Western blot, MCF7 cells, p53; format: cell-based; conditions: wt MCF7 cells, 24 h
Protocol: as §3, §4

CD47 = experiment: Western blot, MCF7 cells, CD47; format: cell-based; conditions: MCF7 cells (FIG. 10)
Protocol: as §4

Brd2 = experiment: Western blot, MCF7 and 22RV1 cells, Brd2; format: cell-based; conditions: MCF7 (with or without E2) or 22RV1 (with or without DHT), 24 h
Protocol: (§5) Western blot analysis was used to determine the protein expression using protein specific antibodies. β-actin or histone 3 was used to normalize protein loading.
(§6) Total cell lysis was conducted using 2×SDS sample buffer (62.5 mM Tris-HCl, 2% SDS, 10% glycerol, 50 mM DTT, and 0.05% bromophenol blue). The samples were sonicated for 10 s to shear DNA. Cell nuclei were isolated using Tris buffer saline with 0.4% NP40. Cell extracts were then electrophoresed through 10% SDS-polyacrylamide gels and transferred to 0.2 μm nitrocellulose membranes (Bio-Rad Laboratories, Hercules, Calif.) with a Miniprotein II transferring apparatus (Bio-Rad). The membranes were blocked and probed in TBS-T buffer (1×TBS buffer, 0.2% Tween 20) containing 5% non-fat milk. […] Enhanced chemiluminescence reagents (Perkin-Elmer Life Science Products, Boston, Mass.) were used to visualize the immunoreactive bands and the densities of protein bands were scanned analyzed using ImageJ software from the NIH.

H3K9 acetylation = experiment: Western blot, MCF7 and 22RV1 cells, H3K9 acetylation; format: cell-based; conditions: MCF7 and 22RV1 cells (FIGS. 11A-11B), 24 h
Protocol: as §5, §6

T4D cells = experiment: Cell growth assay, T4D breast cancer cells; format: cell-based; conditions: under E2 stimulation, 4 days
Protocol: as §1, §2

[4] = Body weight of nude mice during the treatment; format: in vivo; conditions: equivalent dose to Y1830 (2.2 mg/kg, PO, B.I.D.), 11 days
Protocol: 22RV1 prostate cancer cells 5×10^6 cells in 100 μl Matrigel were injected subcutaneously into 10 week old male NCR nude mice. When 22RV1 tumor reached 5 mm×5 mm, mice were orally fed with Y1830 (water extract, 500 mg/kg, PO, B.I.D, N5) and RGA (or the fraction comprising RGA) (equivalent dose to Y1830: 2.2 mg/kg, PO, B.I.D.) for 11 days. Tumor volume was estimated by using the formula length×width^2/2.
When tumors reached 5 mm×5 mm, Y1830 water extract (500 mg/kg, BID, PO) and RGA (or the fraction comprising RGA) at equivalent dose to Y1830 were used to treat animals for 11 days. […] Therefore, it is further concluded that compounds other than molecules in RGA containing fraction of Y1830 total extract may also have anti-tumor activity or prevent tumor to develop drug resistant.

[5] = biological target: glucocorticoid receptor (GR) (Homo sapiens, UniProt P04150); experiment: PSA-luciferase reporter assay, DEX induced, 22RV1 cells; format: cell-based; design: endogenous in cells; conditions: 22RV1 PSA-luciferase reporter cells
Protocol: Reporter cells were treated with herbal extracts at 30, 100, 300, and 1000 μg/ml for 24 h in a 37° C.-CO2 incubator. DHT (25 nM) was used to stimulate androgen receptor activity. Dexamethasone (50 nM) was used to stimulate glucocorticoid receptor activity Cells were lysed using luciferase lysis buffer after which luciferase buffer with luciferin was added to generate luminescence. Luminescence was recorded using a luminescence microplate reader.

Chain of glucocorticoid receptor (GR) (P04150 whole entry): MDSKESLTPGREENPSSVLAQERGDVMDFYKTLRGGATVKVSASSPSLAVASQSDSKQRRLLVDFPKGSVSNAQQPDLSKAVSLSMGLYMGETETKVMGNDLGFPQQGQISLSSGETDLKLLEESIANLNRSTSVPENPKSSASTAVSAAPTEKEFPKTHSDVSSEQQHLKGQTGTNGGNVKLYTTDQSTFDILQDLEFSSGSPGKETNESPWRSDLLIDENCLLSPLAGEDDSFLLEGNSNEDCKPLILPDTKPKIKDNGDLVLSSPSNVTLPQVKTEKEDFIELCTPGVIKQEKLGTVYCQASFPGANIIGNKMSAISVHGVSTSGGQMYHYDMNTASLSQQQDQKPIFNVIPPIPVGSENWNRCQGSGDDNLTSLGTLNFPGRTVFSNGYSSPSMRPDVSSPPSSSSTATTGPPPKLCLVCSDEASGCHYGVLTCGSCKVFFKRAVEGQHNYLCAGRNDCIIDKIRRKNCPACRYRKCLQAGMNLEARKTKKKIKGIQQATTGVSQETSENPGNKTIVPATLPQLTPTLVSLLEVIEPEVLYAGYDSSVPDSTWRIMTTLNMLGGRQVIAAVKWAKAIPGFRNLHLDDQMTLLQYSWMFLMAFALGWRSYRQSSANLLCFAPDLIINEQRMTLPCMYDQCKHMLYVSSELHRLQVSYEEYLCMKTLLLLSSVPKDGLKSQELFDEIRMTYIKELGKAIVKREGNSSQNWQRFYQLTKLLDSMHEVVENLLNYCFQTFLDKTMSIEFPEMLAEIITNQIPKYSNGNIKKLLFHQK

inhibitory effect on DEX induced transcriptional response [5] | SMILES | inhibition on the growth of MCF7 cells (MCF7 cells) | inhibition of DEX induced SGK1 mRNA expression [1] | histone 2AX serine 139 phosphorylation [2] | PARP-1 protein expression [3] | p53 protein expression (tumor protein p53) | CD47 expression (CD47) | Brd2 protein expression (Brd2) | H3K9 acetylation (H3K9 acetylation) | inhibitory effect on T4D cell growth (T4D cells) | animal body weight loss [4]
– | Cc1c(OC2OC(CO)C(O)C(O)C2OC2OC(C)C(O)C(O)C2O)cc2c(c1O)C(=O)c1ccc(O)cc1C2=O [RG, 1,3,6-Trihydroxy-2-methyl-9,10-anthracenedione 3-O-[α-L-Rhamnopyranosyl-(1→2)-β-D-glucopyranoside]] | very weak growth inhibition | – | – | – | – | – | – | – | – | –
inhibitory effect | CC(=O)OCC1OC(Oc2cc3c(c(O)c2C)C(=O)c2ccc(O)cc2C3=O)C(OC2OC(C)C(O)C(O)C2O)C(O)C1O [RGA, 1,3,6-Trihydroxy-2-methyl-9,10-anthracenedione 3-O-[α-L-Rhamnopyranosyl-(1→2)-6-O-acetyl-β-D-glucopyranoside]] | – | inhibited | triggered | downregulate | downregulated | downregulation | decreased | did not have a large impact | strong inhibitory effect | did not cause animal body weight loss
